Test results published in PubChem BioAssay (NCI).
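Assay format: 96-well plates, 48-hour exposure. TGI marks complete inhibition of growth.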

How the values were obtained:
Assay in all cases: NCI tumour cell line growth inhibition, 48 h
MALME-3M melanoma = system: MALME-3M melanoma
PC-3 prostate = system: PC-3 prostate
COLO 205 colon = system: COLO 205 colon
MDA-N = system: MDA-N
U251 CNS = system: U251 CNS
A549 NSCLC = system: A549 NSCLC
T-47D breast = system: T-47D breast
OVCAR-5 ovarian = system: OVCAR-5 ovarian
M14 melanoma = system: M14 melanoma
SF-268 CNS = system: SF-268 CNS
SF-295 CNS = system: SF-295 CNS
HCC-2998 colon = system: HCC-2998 colon
SR leukemia = system: SR leukemia

SMILES | TGI (MALME-3M melanoma) [µM] | TGI (PC-3 prostate) [µM] | TGI (COLO 205 colon) [µM] | TGI (MDA-N) [µM] | TGI (U251 CNS) [µM] | TGI (A549 NSCLC) [µM] | TGI (T-47D breast) [µM] | TGI (OVCAR-5 ovarian) [µM] | TGI (M14 melanoma) [µM] | TGI (SF-268 CNS) [µM] | TGI (SF-295 CNS) [µM] | TGI (HCC-2998 colon) [µM] | TGI (SR leukemia) [µM]
C=C(C)C1CC2=C(O1)C(=O)c1cccc(O)c1C2=O (stereo not drawn) | 2.31 | 3.67 | 3.25 | 0.132 | 3.01 | 4.9 | 3.04 | 3.01 | 2.43 | 1.47 | 2.73 | 3.97 | 
COC(=O)C1SC[C@H]2C(=O)N(c3ccccc3)C(=O)N12 (stereo partly drawn) | > 100 | > 100 | > 100 | > 100 | > 100 | > 100 | > 100 | > 100 | > 100 | > 100 | > 100 | > 100 | > 100
C#CCOC(=O)[C@@H](C)c1ccc2cc(OC)ccc2c1 |  | > 100 | > 100 | > 100 | > 100 |  | > 100 | > 100 | > 100 | > 100 | > 100 |  | > 100
N#Cc1c2ccc([N+](=O)[O-])cc2c(=O)n2c1sc1ccccc12 |  | 43.9 | 37.7 | > 100 | 95.4 | 28.5 | 71.4 |  |  | > 100 |  | 38.7 | 24.4
Cc1ccc(NC(=S)N=Nc2c(O)[nH]c3ccccc23)cc1 | > 100 | > 100 | > 100 | > 100 | > 100 | > 100 | > 100 | > 100 | > 100 | > 100 | > 100 | > 100 | > 100
CC(=O)OCCCCn1cnc2c(Cl)nc(Nc3ccccc3)nc21 | > 100 | > 100 | > 100 | > 100 | > 100 | > 100 | > 100 | > 100 |  |  | > 100 | > 100 | > 100
COc1ccc(C(=O)N(Cc2cccnc2)C(=S)N(Cc2cccnc2)C(=O)c2ccc(OC)cc2)cc1 | > 100 | > 100 | > 100 | > 100 | > 100 | > 100 | > 100 | > 100 | > 100 | > 100 | > 100 | > 100 | > 100
CS(=O)(=O)CCC(N)P(=O)(O)O (stereo not drawn) | > 100 | > 100 | > 100 | > 100 | > 100 | > 100 | > 100 | > 100 | > 100 | > 100 | > 100 |  | > 100
COc1ccc(Br)c(C=Nc2cccc3cc(OC)c(OC)cc23)c1 | 99.6 | > 100 | > 100 | > 41.4 | 12.1 | > 100 | > 100 | > 100 | > 58.1 | > 100 | > 100 | > 100 | 11.6
C=CCN(c1cc(OC)c2c(c1[N+](=O)[O-])C(C)(SC)C(=O)N2)S(C)(=O)=O (stereo not drawn) | > 100 | > 100 | > 100 | > 100 | > 100 | > 100 | > 100 |  |  | > 100 | > 100 | > 100 | > 100
C[C@H](CO)C1=CC(C#C[Si](C)(C)C)N(C(=O)Oc2ccccc2)c2ccccc21 (stereo partly drawn) |  | 24 | 24.3 | 13.3 | 28 | 26.8 | 38.1 | 30.5 | 22 | 27.6 | 14.3 | 30.6 | 82.5
Nc1ncnc2c1cnn2COCC(O)CO (stereo not drawn) | > 100 | > 100 | > 100 | > 100 | > 100 | > 100 | > 100 | > 100 | > 100 | > 100 | > 100 | > 100 | > 100
Nc1nc(Cl)c(C=O)c(NCC2(CO)CCC2)n1 | > 100 | 34.6 | 78.3 | 77 | 31.9 | > 100 | > 100 | > 100 | > 100 | 51.8 | 67.6 | 22.9 | 43.8
Brc1ccc(C2CC3(c4ccccc4)ON=C(c4ccccc4)N3c3ccccc3S2)cc1 (stereo not drawn) | > 100 | > 100 | > 100 | > 100 | > 100 | > 100 | > 100 | > 100 | > 100 | > 100 | > 100 | > 100 | > 100
NS(=O)(=O)c1ccc(N2C(=O)C(=O)N(c3ccccc3)C2=S)cc1 | > 100 | > 100 | > 100 | > 100 | > 100 | > 100 | > 100 | > 100 |  | > 100 | > 100 | > 100 | > 100
O=C1c2cc([N+](=O)[O-])sc2C(=O)c2cc([N+](=O)[O-])sc21 | 2.38 | 15.9 | 6.1 | 4.72 | 3.38 | 49.6 | 10.8 | 15.5 | 9.25 | 10 | 23.9 | 8.56 | 6
COc1ncc(C#CC(=O)c2ccccc2)c(OC)n1 | 3.62 | 4.43 | 5.08 | 3.73 | 9.59 | 33.1 | 15.8 | 12.8 | 10.5 | 26.4 | 36 | 13.3 | 4.68
C(#C[C@@]12CCC[C@@H]1N(Cc1ccccc1)CO2)c1ccc2c(c1)OCO2 | > 100 | > 100 | > 100 | > 100 | > 100 | > 100 | > 100 | > 100 | > 100 | > 100 | > 100 | > 100 | 
